Tests used:
brain metastases [1] = settings: clinical results, MRI long after administration; cited from earlier work
tumors [2] = settings: clinical results, magnetic resonance imaging; cited from earlier work
tumors [3] = settings: cited from earlier work
[4] = tested on: brain metastases from solid tumors; settings: patients with brain metastases from solid tumors receiving WBRT; cited from earlier work
brain metastases [5] = experiment: MRI of brain metastases after MGd (FIG. 1A, 1B); assay type: in vivo, human
From the text: In particular, sections 20, 21, and 22 on the right panel (MGd+standard contrast) show brain metastases not visible in sections 20, 21, and 22 on the left panel (standard Gd contrast).

Compound | tumor selectivity, depiction of brain metastases at MRI (brain metastases [1]) | biolocalization in tumors (tumors [2]) | accumulation in tumors (tumors [3]; clinical results) | well tolerated dose (tumors [3]; clinical results) | radiologic response rate (tumors [3]; combined with WBRT of 30 Gy in 10 fractions) | neurological progression incl. neurologic and neurocognitive function [4] | MRI enhancement of brain metastases versus standard Gd contrast (brain metastases [5]; FIG. 1A, MGd+standard contrast vs standard Gd contrast) | localization in brain metastases on MRI (brain metastases [5]; FIG. 1B, brain metastases from NSCLC, post MGd without contrast)
CC(=O)[O-].CC(=O)[O-].CCc1c(CC)c2cc3nc(cnc4cc(OCCOCCOCCOC)c(OCCOCCOCCOC)cc4ncc4nc(cc1[n-]2)C(CCCO)=C4C)C(C)=C3CCCO.O.[Gd+3] [Gd-Tex, Gadolinium Texaphyrin] | tumor selective | selective biolocolization in tumors | – | – | – | – | – | –
CC(=O)[O-].CC(=O)[O-].CCc1c(CC)c2cc3nc(cnc4cc(OCCOCCOCCOC)c(OCCOCCOCCOC)cc4ncc4nc(cc1[n-]2)C(CCCO)=C4C)C(C)=C3CCCO.O.[Gd+3] [MGd, motexafin gadolinium] | – | – | selectively accumulated in tumors | up to 6.3 mg/kg | high radiologic response rate | provides benefit to patient's neurological progression | enhances brain metastases not visible with standard Gd contrast | localization in brain metastases from NSCLC

Reference: US20070219174A1, “METHODS OF TREATING CANCER USING HYPOFRACTIONATED RADIATION AND TEXAPHYRINS” (Pharmacyclics, Inc., priority 2006, published 2007)
